This note sets out measurements from patent US8039501B2, “Synephrine derivatives useful as anti-inflammatory agents” (Universiteit Gent, priority 2005, dated 2011).

One assay has as its system NFκB. The experiment in a line: EMSA of NFkB DNA binding in MCF7 cells. Format: cell-based, human. As to conditions: pre-treated 10, 1, 0.1, 0.01, 0.001 μM for two hours, TNF 2000 IU/ml 30 min, FIG. 7A. As to the method: For the EMSA, the MCF7 cells were pre-treated with varying concentrations of CpdA (10, 1, 0.1, 0.01, and 0.001 μM) and DEX (0.1 μM) for two hours and subsequently TNF-induced or non-TNF-induced during 30 min at 2000 IU/ml. After the induction period, nuclear extracts were examined in EMSA assays. Cells were washed with ice-cold PBS, scraped off, and pelleted in 15 ml of PBS by centrifugation for 5 min at 2600 rpm at 4° C. and lysed for 30 minutes at 4° C. in Totex buffer (20 mM HEPES (pH 7.9), 350 mM NaCl, 1 mM MgCl, 0.5 mM EDTA, 0.1 mM EGTA, 5 mM DTT, 20% glycerol, 1% NP-40, 0.1% PMSF, 1% aprotinin (4 mg/ml leupeptin). Supernatants from a 4000-rpm 10-min centrifugation were collected, aliquoted and stored at −20° C. until further use. Radiolabelled oligonucleotides that correspond to a consensus κB DNA-binding element of the IL-6 promoter, and of activating protein 1 (AP-1) DNA target-were used for appropriate EMSA's. These oligonucleotides of about 25 nucleotides comprise centrally the transcription factor binding motif. […] The samples were analyzed by electrophoresis on 6% native polyacrylamide gels. […] Visualization and quantitation of radioactive signals was carried out by a Phosphorlmager and scanned using a bioimaging analyzer (Personal Molecular Imager® FX Bio-Rad). […]

The target in assay [1] is T1, glucocorticoid receptor (GR) (Homo sapiens, UniProt P04150).
T1 construct: endogenous in cells; host or cells: primary fibroblast-like synoviocytes from RA patients
T1 sequence (P04150 1-777): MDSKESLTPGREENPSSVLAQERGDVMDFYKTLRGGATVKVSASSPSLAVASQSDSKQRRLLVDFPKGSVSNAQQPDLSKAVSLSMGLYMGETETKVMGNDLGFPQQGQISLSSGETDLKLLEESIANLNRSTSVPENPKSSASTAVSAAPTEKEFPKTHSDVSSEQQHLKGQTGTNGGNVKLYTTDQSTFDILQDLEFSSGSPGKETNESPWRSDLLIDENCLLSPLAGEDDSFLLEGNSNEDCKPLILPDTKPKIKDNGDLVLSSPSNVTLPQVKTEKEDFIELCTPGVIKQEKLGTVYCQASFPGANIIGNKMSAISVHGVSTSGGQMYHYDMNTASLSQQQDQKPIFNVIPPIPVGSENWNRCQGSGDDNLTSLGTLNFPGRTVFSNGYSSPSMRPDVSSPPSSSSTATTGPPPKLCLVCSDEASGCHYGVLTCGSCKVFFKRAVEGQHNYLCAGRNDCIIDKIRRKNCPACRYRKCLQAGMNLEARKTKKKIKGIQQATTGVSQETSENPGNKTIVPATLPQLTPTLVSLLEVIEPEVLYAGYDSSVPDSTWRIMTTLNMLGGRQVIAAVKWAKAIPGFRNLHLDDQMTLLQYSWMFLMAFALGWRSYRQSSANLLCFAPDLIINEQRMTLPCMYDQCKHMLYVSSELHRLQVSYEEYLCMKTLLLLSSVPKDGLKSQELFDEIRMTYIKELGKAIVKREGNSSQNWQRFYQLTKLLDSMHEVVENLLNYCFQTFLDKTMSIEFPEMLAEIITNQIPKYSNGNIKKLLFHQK
The experiment in a line: Western blot of homologous down-regulation of GR in FLS. Format: cell-based. As to conditions: 10 μM, 3, 6, 9 or 24 hours, FIG. 22A. As to the method: CpdA was synthesized as described previously. […] They were sacrificed and livers were isolated. […] Gene expression of HPRT was used for normalization. […] Gene expression of HPRT was used for normalization. […] Gene expression of HPRT was used for normalization. Statistical significance was determined by one way anova. […] Gene expression of HPRT was used for normalization. […] Gene expression of HPRT was used for normalization. Statistical significance was determined by one way anova. […] Statistical significance was determined with a Kruskal-Wallis test.
Western blot analysis was performed on total protein extracts with an anti-GR(H-300) antibody. The detection of ERK was used as a loading control. After 8 days of treatment liver samples were taken from the PBS, DEX (20 μg) or CpdA (300 μg) treated DBA/1 mice (FIG. 22B). Q-PCR was performed for the detection of GR in the different samples. Statistical significance was determined with a Mann-Whitney Test. FLS were pre-treated with solvent, DEX (1 μM) or CpdA (10 μM) for 1 hour (set-up 1) or 24 hours (set-up 2), as indicated in the figures. Afterwards, TNF (2000 units/ml) was added for 6 h. Western blot analysis was performed on total extracts with an anti-GR(H-300) antibody (FIG. 19A). Detection of ERK was used as a loading control. […] Statistical significance was determined by one way anova. […]

Each structure is given as a SMILES string.

Turning to `CNCC(Cl)c1ccc(OC(C)=O)cc1.Cl` (centres unmarked) [CpdA, 2-(4-acetoxyphenyl)-2-chloro-N-methyl-ethylammonium chloride], the “NFkB available for DNA binding (EMSA)” value in the assay with NFκB is “significant impairment of NFkB available for DNA binding”. Also, the “Ligand-induced down-regulation of the glucocorticoid receptor (GR)” value in assay [1] is “does not evoke a ligand-induced down-regulation of the glucocorticoid receptor (GR)”.
